This is an account of results in ChEMBL document CHEMBL3585316, “Discovery, bioactivity and docking simulation of Vorinostat analogues containing 1,2,4-oxadiazole moiety as potent histone deacetylase inhibitors and antitumor agents” (Bioorg Med Chem, 2015).

Some results are limits rather than exact numbers.

Assay [1] concerns the target Histone deacetylase. Description: Inhibition of histone deacetylase (unknown origin) by cell-free assay. The class given is protein assay, Homo sapiens.
For assay [2], the target named is Histone deacetylase. Description: Inhibition of histone deacetylase (unknown origin) by intracellular cell based assay. Further details: species or system Homo sapiens.
Another assay relates to U-937. Description: Antiproliferative activity against human U937 cells incubated for 72 hrs by MTT assay. It is filed as functional, cell-based. To be noted: U-937, 72 h.
The target in a further assay is T1, Histone deacetylase 8 (Homo sapiens, UniProt Q9BY41).
T1 sequence (Q9BY41 whole entry): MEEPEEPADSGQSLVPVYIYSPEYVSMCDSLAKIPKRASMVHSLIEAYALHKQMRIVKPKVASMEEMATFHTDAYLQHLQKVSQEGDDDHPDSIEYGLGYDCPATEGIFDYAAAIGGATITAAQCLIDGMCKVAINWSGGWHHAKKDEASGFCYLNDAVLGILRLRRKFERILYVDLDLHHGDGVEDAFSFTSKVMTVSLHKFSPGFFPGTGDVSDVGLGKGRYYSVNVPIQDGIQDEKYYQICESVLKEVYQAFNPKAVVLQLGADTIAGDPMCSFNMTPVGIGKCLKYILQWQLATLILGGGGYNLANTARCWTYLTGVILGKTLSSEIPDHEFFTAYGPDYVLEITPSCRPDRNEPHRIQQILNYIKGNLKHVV
Description: Inhibition of recombinant HDAC8 (unknown origin) incubated for 10 mins using Boc-Lys(acetyl)-AMC fluorogenic substrate by homogeneous fluorescence release assay.

A further assay concerns NCI-H661. Description: Antiproliferative activity against human NCI-H661 cells incubated for 72 hrs by MTT assay. The class given is functional, cell-based. As to conditions: NCI-H661, 72 h.
For a further assay, the system named is A549. Description: cells. To be noted: Homo sapiens, A549, 72 h.
For the next assay, the target named is Histone deacetylase 2 (Homo sapiens, UniProt Q92769). Description: Inhibition of recombinant HDAC2 (unknown origin) incubated for 10 mins using Boc-Lys(acetyl)-AMC fluorogenic substrate by homogeneous fluorescence release assay.
The target of another assay is Histone deacetylase 1 (Homo sapiens, UniProt Q13547). Description: Inhibition of recombinant HDAC1 (unknown origin) incubated for 10 mins using Boc-Lys(acetyl)-AMC fluorogenic substrate by homogeneous fluorescence release assay.
Histone deacetylase 1, sequence (Q13547 whole entry): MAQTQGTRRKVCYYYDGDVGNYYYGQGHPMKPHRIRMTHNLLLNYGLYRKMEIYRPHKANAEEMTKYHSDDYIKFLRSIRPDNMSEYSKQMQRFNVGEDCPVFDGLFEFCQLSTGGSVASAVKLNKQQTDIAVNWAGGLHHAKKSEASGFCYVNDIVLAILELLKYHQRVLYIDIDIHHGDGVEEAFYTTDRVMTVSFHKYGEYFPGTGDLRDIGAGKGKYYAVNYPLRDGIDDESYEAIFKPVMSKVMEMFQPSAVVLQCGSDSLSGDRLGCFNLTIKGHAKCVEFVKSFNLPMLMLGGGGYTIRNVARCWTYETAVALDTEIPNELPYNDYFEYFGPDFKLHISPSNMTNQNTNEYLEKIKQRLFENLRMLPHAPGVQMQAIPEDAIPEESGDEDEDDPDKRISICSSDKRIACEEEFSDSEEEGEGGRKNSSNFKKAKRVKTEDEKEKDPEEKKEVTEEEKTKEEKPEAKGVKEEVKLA

Histone deacetylase 2, sequence (Q92769 whole entry): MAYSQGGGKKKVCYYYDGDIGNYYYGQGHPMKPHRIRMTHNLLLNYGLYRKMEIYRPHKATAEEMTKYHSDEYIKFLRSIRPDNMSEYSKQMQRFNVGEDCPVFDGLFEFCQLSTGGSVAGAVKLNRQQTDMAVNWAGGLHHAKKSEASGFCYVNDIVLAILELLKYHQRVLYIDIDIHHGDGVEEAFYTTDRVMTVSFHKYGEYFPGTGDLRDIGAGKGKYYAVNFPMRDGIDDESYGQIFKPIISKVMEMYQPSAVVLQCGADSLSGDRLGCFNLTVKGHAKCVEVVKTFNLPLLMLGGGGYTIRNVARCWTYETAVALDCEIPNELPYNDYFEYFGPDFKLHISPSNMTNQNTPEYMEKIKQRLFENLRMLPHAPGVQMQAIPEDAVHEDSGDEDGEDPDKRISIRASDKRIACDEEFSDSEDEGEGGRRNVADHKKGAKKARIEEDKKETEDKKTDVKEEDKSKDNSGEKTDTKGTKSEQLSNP
Description for A549: Antiproliferative activity against human A549 cells incubated for 72 hrs by MTT assay

With `O=C(CCCCCc1nc2cc3ccccc3cc2[nH]1)C(F)(F)F`, the IC50 against Histone deacetylase [1] was determined as 0.6 µM; on Histone deacetylase [2], 1.8 µM.

For `O=C(CCCCCCc1nc(-c2cccs2)no1)C(F)(F)F`, the IC50 is 1280 nM in the assay on U-937; 0.95 µM on Histone deacetylase 8; 7.53 µM in the assay with NCI-H661; 11.7 µM with A549; 1.63 µM on Histone deacetylase 2; 5170 nM at Histone deacetylase 1.

On to `Cc1ccc(-c2noc(CCCCCCC(=O)C(F)(F)F)n2)cc1`, for which the IC50 in the assay with U-937 was 3730 nM; on Histone deacetylase 8, 3.19 µM; with NCI-H661, 18.7 µM; with A549, > 100 µM; at Histone deacetylase 2 it was 7.32 µM; at Histone deacetylase 1, > 10000 nM.

As to `Nc1ccccc1NC(=O)CCCCCCc1nc(-c2ccc(C(F)(F)F)cc2)no1`, the IC50 in the assay on U-937 is 5280 nM; on Histone deacetylase 8, > 10 µM; with NCI-H661 it was 29.8 µM; in the assay on A549, > 100 µM; on Histone deacetylase 2 it was > 10 µM; at Histone deacetylase 1, 3040 nM.

Take `Nc1ccccc1NC(=O)CCCCCCc1nc(-c2cccnc2)no1`: the IC50 with U-937 was 2070 nM; on Histone deacetylase 8, > 10 µM; in the assay with NCI-H661 it was 15.4 µM; in the assay on A549, > 100 µM; on Histone deacetylase 2 it was 3.16 µM; at Histone deacetylase 1, 1050 nM.

For the compound `O=C(CCCCCCc1nc(-c2ccc(C(F)(F)F)cc2)no1)NO`, the IC50 was 2870 nM in the assay on U-937; > 10 µM at Histone deacetylase 8; 15.3 µM in the assay with NCI-H661; 14 µM with A549; 7.93 µM on Histone deacetylase 2; 1920 nM on Histone deacetylase 1.

Consider `COc1ccc(-c2noc(CCCCCCC(=O)Nc3ccccc3N)n2)cc1`, for which the IC50 in the assay on U-937 is 2690 nM; on Histone deacetylase 8 it was > 10 µM; with NCI-H661 it was 7.99 µM; in the assay with A549, 19.5 µM; at Histone deacetylase 2, 3.85 µM; on Histone deacetylase 1 it was 910 nM.

For the compound `O=C(CCCCCCc1nc(-c2ccc(Cl)cc2)no1)NO`, the IC50 in the assay with U-937 is 980 nM; on Histone deacetylase 8, > 10 µM; with NCI-H661, 17.3 µM; in the assay on A549 it was 11.9 µM; at Histone deacetylase 2, 5.19 µM; at Histone deacetylase 1, 680 nM.
